Data published in patent US9993494B2, “Compositions and methods for treating fibrotic disease” (eFFECTOR Therapeutics, Inc., priority 2014, dated 2018).

System: normal human lung fibroblasts
Assay: Ribosomal profiling: translational efficiency in TGFβ-treated fibroblasts
Format: cell-based
Outline: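 Genome-wide RPF and total RNA libraries (ARTseq, RNA-Seq) were made from lysates of cycloheximide-treated, PBS-washed cells. After trimming and human-genome mapping, per-gene coding-region counts were compared between RPF and RNA for translational efficiency. Genes scoring low in either fraction were dropped.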

TGFβ
change in translational profile of CTPS caused by TGFβ (ENSG00000171793, Control vs. TGFβ): D (D = <1.0 to 1.5)
Log2 TE RPS21 (ENSG00000171858, 5 replicates): 1.846
Log2 TE RPS7 (ENSG00000171863, 5 replicates): 1.549
Log2 TE QARS (ENSG00000172053, 5 replicates): 1.362
change in translational profile of QARS caused by TGFβ (ENSG00000172053, Control vs. TGFβ): D (D = <1.0 to 1.5)
Log2 TE RPL38 (ENSG00000172809, 5 replicates): 1.353
change in translational profile of RPL38 caused by TGFβ (ENSG00000172809, Control vs. TGFβ): E (E = <1.5 to 2.5)
Log2 TE HSPB7 (ENSG00000173641, 5 replicates): 1.292
change in translational profile of MRPL45 caused by TGFβ (ENSG00000174100, Control vs. TGFβ): D (D = <1.0 to 1.5)
Log2 TE EVX2 (ENSG00000174279, 5 replicates): 2.887
Log2 TE RPL4 (ENSG00000174444, 5 replicates): 1.688
change in translational profile of RPL4 caused by TGFβ (ENSG00000174444, Control vs. TGFβ): E (E = <1.5 to 2.5)
Log2 TE RPL15 (ENSG00000174748, 5 replicates): 1.254
change in translational profile of RPL15 caused by TGFβ (ENSG00000174748, Control vs. TGFβ): D (D = <1.0 to 1.5)
Log2 TE DES (ENSG00000175084, 5 replicates): 1.204
change in translational profile of DES caused by TGFβ (ENSG00000175084, Control vs. TGFβ): E (E = <1.5 to 2.5)
Log2 TE CST6 (ENSG00000175315, 5 replicates): 1.241
Log2 TE EIF3F (ENSG00000175390, 5 replicates): 1.29
change in translational profile of EIF3F caused by TGFβ (ENSG00000175390, Control vs. TGFβ): D (D = <1.0 to 1.5)
Log2 TE CLCF1 (ENSG00000175505, 5 replicates): 1.594
change in translational profile of CLCF1 caused by TGFβ (ENSG00000175505, Control vs. TGFβ): E (E = <1.5 to 2.5)
Log2 TE AMIGO3 (ENSG00000176020, 5 replicates): −1.314
change in translational profile of AMIGO3 caused by TGFβ (ENSG00000176020, Control vs. TGFβ): C (C = <−1.0 to −1.5)
Log2 TE C14orf49 (ENSG00000176438, 5 replicates): −1.044
change in translational profile of C14orf49 caused by TGFβ (ENSG00000176438, Control vs. TGFβ): C (C = <−1.0 to −1.5)
Log2 TE RPLP2 (ENSG00000177600, 5 replicates): 1.694
change in translational profile of RPLP2 caused by TGFβ (ENSG00000177600, Control vs. TGFβ): E (E = <1.5 to 2.5)
Log2 TE RPS27 (ENSG00000177954, 5 replicates): 1.429
change in translational profile of IMPDH2 caused by TGFβ (ENSG00000178035, Control vs. TGFβ): D (D = <1.0 to 1.5)
Log2 TE DNAJC22 (ENSG00000178401, 5 replicates): −1.189
change in translational profile of DNAJC22 caused by TGFβ (ENSG00000178401, Control vs. TGFβ): B (B = <−1.5 to −2.5)
Log2 TE YOD1 (ENSG00000180667, 5 replicates): 1.146
Log2 TE PGBD4 (ENSG00000182405, 5 replicates): 1.055
Log2 TE RPL35A (ENSG00000182899, 5 replicates): 1.627
change in translational profile of RPL35A caused by TGFβ (ENSG00000182899, Control vs. TGFβ): E (E = <1.5 to 2.5)
change in translational profile of LENG9 caused by TGFβ (ENSG00000182909, Control vs. TGFβ): D (D = <1.0 to 1.5)
change in translational profile of C22orf32 caused by TGFβ (ENSG00000183172, Control vs. TGFβ): D (D = <1.0 to 1.5)
Log2 TE CHEK2 (ENSG00000183765, 5 replicates): −1.457
change in translational profile of NPW caused by TGFβ (ENSG00000183971, Control vs. TGFβ): D (D = <1.0 to 1.5)
Log2 TE ALDH1A3 (ENSG00000184254, 5 replicates): −1.327
Log2 TE PDE4B (ENSG00000184588, 5 replicates): −2.021
change in translational profile of PDE4B caused by TGFβ (ENSG00000184588, Control vs. TGFβ): B (B = <−1.5 to −2.5)
Log2 TE CDCA2 (ENSG00000184661, 5 replicates): −1.573
Log2 TE 5-Sep (ENSG00000184702, 5 replicates): 1.209
change in translational profile of ROBO2 caused by TGFβ (ENSG00000185008, Control vs. TGFβ): C (C = <−1.0 to −1.5)
Log2 TE SEMA4B (ENSG00000185033, 5 replicates): −1.413
Log2 TE SH3BGR (ENSG00000185437, 5 replicates): 1.121
change in translational profile of PTCH1 caused by TGFβ (ENSG00000185920, Control vs. TGFβ): D (D = <1.0 to 1.5)
Log2 TE POLR1D (ENSG00000186184, 5 replicates): 1.23
change in translational profile of POLR1D caused by TGFβ (ENSG00000186184, Control vs. TGFβ): E (E = <1.5 to 2.5)
Log2 TE RPS23 (ENSG00000186468, 5 replicates): 1.302
Log2 TE DYNC2H1 (ENSG00000187240, 5 replicates): −1.228
change in translational profile of DYNC2H1 caused by TGFβ (ENSG00000187240, Control vs. TGFβ): B (B = <−1.5 to −2.5)
Log2 TE TET3 (ENSG00000187605, 5 replicates): 1.541
Log2 TE ZSCAN23 (ENSG00000187987, 5 replicates): −1.048
Log2 TE RPL14 (ENSG00000188846, 5 replicates): 1.745
change in translational profile of RPL14 caused by TGFβ (ENSG00000188846, Control vs. TGFβ): E (E = <1.5 to 2.5)
change in translational profile of LRRK2 caused by TGFβ (ENSG00000188906, Control vs. TGFβ): C (C = <−1.0 to −1.5)
Log2 TE ZNF33A (ENSG00000189180, 5 replicates): −1.058
Log2 TE KIAA0408 (ENSG00000189367, 5 replicates): −1.283
Log2 TE ZBTB44 (ENSG00000196323, 5 replicates): −1.222
Log2 TE NACA (ENSG00000196531, 5 replicates): 1.083
change in translational profile of NACA caused by TGFβ (ENSG00000196531, Control vs. TGFβ): E (E = <1.5 to 2.5)
Log2 TE ADH1B (ENSG00000196616, 5 replicates): −2.795
Log2 TE TOMM7 (ENSG00000196683, 5 replicates): 1.126
change in translational profile of LAMB3 caused by TGFβ (ENSG00000196878, Control vs. TGFβ): D (D = <1.0 to 1.5)
Log2 TE PCBP2 (ENSG00000197111, 5 replicates): 1.293
change in translational profile of PCBP2 caused by TGFβ (ENSG00000197111, Control vs. TGFβ): E (E = <1.5 to 2.5)
Log2 TE MAP3K5 (ENSG00000197442, 5 replicates): −2.0153
change in translational profile of MAP3K5 caused by TGFβ (ENSG00000197442, Control vs. TGFβ): B (B = <−1.5 to −2.5)
Log2 TE RPS26 (ENSG00000197728, 5 replicates): 1.09
Log2 TE RPL37A (ENSG00000197756, 5 replicates): 2.029
change in translational profile of RPL37A caused by TGFβ (ENSG00000197756, Control vs. TGFβ): E (E = <1.5 to 2.5)
Log2 TE RPL12 (ENSG00000197958, 5 replicates): 1.878
change in translational profile of RPL12 caused by TGFβ (ENSG00000197958, Control vs. TGFβ): E (E = <1.5 to 2.5)
Log2 TE DNM3 (ENSG00000197959, 5 replicates): −1.161
Log2 TE RPS4X (ENSG00000198034, 5 replicates): 1.534
Log2 TE LPAR1 (ENSG00000198121, 5 replicates): −1.448
change in translational profile of LPAR1 caused by TGFβ (ENSG00000198121, Control vs. TGFβ): C (C = <−1.0 to −1.5)
Log2 TE ZNF607 (ENSG00000198182, 5 replicates): −1.108
Log2 TE RPL23A (ENSG00000198242, 5 replicates): 1.395
change in translational profile of RPL23A caused by TGFβ (ENSG00000198242, Control vs. TGFβ): E (E = <1.5 to 2.5)
Log2 TE TPM2 (ENSG00000198467, 5 replicates): 1.077
change in translational profile of PLN caused by TGFβ (ENSG00000198523, Control vs. TGFβ): F (F = >2.5)
Log2 TE RPL10A (ENSG00000198755, 5 replicates): 1.51
change in translational profile of RPL10A caused by TGFβ (ENSG00000198755, Control vs. TGFβ): E (E = <1.5 to 2.5)
Log2 TE CES1 (ENSG00000198848, 5 replicates): 1.084
change in translational profile of CES1 caused by TGFβ (ENSG00000198848, Control vs. TGFβ): E (E = <1.5 to 2.5)
Log2 TE RPL39 (ENSG00000198918, 5 replicates): 1.536
change in translational profile of RPL39 caused by TGFβ (ENSG00000198918, Control vs. TGFβ): E (E = <1.5 to 2.5)
Log2 TE GPRASP1 (ENSG00000198932, 5 replicates): −1.239
Log2 TE RORB (ENSG00000198963, 5 replicates): −1.766
Log2 TE CARD16 (ENSG00000204397, 5 replicates): −1.076
change in translational profile of CARD16 caused by TGFβ (ENSG00000204397, Control vs. TGFβ): B (B = <−1.5 to −2.5)
Log2 TE MICA (ENSG00000204520, 5 replicates): 1.143
change in translational profile of MICA caused by TGFβ (ENSG00000204520, Control vs. TGFβ): E (E = <1.5 to 2.5)
Log2 TE GNB2L1 (ENSG00000204628, 5 replicates): 1.732
change in translational profile of GNB2L1 caused by TGFβ (ENSG00000204628, Control vs. TGFβ): E (E = <1.5 to 2.5)
Log2 TE RPS29 (ENSG00000213741, 5 replicates): 1.571
Log2 TE RPL17 (ENSG00000215472, 5 replicates): 1.299
change in translational profile of RPL17 caused by TGFβ (ENSG00000215472, Control vs. TGFβ): E (E = <1.5 to 2.5)
Log2 TE UBA52 (ENSG00000221983, 5 replicates): 1.125
Log2 TE BTBD19 (ENSG00000222009, 5 replicates): 1.524
Log2 TE RPL41 (ENSG00000229117, 5 replicates): 1.474
change in translational profile of RPL41 caused by TGFβ (ENSG00000229117, Control vs. TGFβ): E (E = <1.5 to 2.5)
Log2 TE RPS18 (ENSG00000231500, 5 replicates): 2.003
Log2 TE C17orf108 (ENSG00000232859, 5 replicates): −1.329
Log2 TE RPS28 (ENSG00000233927, 5 replicates): 1.937
Log2 TE ARPC1A (ENSG00000241685, 5 replicates): 1.288
change in translational profile of ARPC1A caused by TGFβ (ENSG00000241685, Control vs. TGFβ): D (D = <1.0 to 1.5)
Log2 TE IFITM10 (ENSG00000244242, 5 replicates): −1.299
Log2 TE FMN1 (ENSG00000248905, 5 replicates): −1.906
Log2 TE CHCHD10 (ENSG00000250479, 5 replicates): 2.519
change in translational profile of CHCHD10 caused by TGFβ (ENSG00000250479, Control vs. TGFβ): F (F = >2.5)
Log2 TE SEPP1 (ENSG00000250722, 5 replicates): −1.035
Log2 TE EEF1G (ENSG00000254772, 5 replicates): 1.551
change in translational profile of EEF1G caused by TGFβ (ENSG00000254772, Control vs. TGFβ): E (E = <1.5 to 2.5)
Log2 TE TEN1 (ENSG00000257949, 5 replicates): 1.361
